This is an account of results in US11207271B2, “Mazindol IR/SR multilayer tablet and its use for the treatment of attention deficit/hyperactivity disorder (ADHD)” (NLS-1 Pharma AG, priority 2016, dated 2021).

The nature of data set [1]: Pharmacokinetics of immediate-release mazindol after oral administration. Format: in vivo, human. The note with it: immediate release formulation; from half-life. The protocol:
In U.S. Pat. No. 8,293,779, it is disclosed that, after single or repeated oral administration, mazindol is absorbed with a time to maximum concentrations (Tmax) of 2-4 hours.
Such immediate release compositions thus require twice daily administration, which limits compliance in the special case of children of school age, as the second administration is often requested to be done at midday, i.e. during school time. Even given the fact that the immediate release tablet undergoes complete in vitro dissolution within 1 hour, the time to maximum concentrations (Tmax) occurs at 3-4 hours after drug administration in healthy volunteers (Kim 2009). Rapid initial absorption will allow the earlier achievement of adequate systemic exposure to achieve desired efficacy (e.g., administer early and have onset of efficacy 1-2 hours later, when patient is at school or work).

Data set [2] can be described thus: In vitro TIM gastrointestinal system, fasted vs fed. Format: in vitro ADME, human. The note with it: formulated according to the invention. From the text:
As discussed, this is particularly beneficial for ADHD patients, for this initial amount of mazindol provided increases patients' mental alertness and acuity at the start of their day (e.g., driving to work, starting school).

For data set [3] the following is noted: cited from earlier work.
For data set [4] the following is noted: animal toxicology studies; cited from earlier work.
For data set [5] the following is noted: cited from earlier work. The source holds these as a separate data set.
For data set [6] the following is noted: clinical pharmacokinetic studies; cited from earlier work.

On to `OC1(c2ccc(Cl)cc2)c2ccccc2C2=NCCN21` (centres unmarked) [mazindol, 5-(4-chlorophenyl)-2,5-dihydro-3H-imadazo[2,1-a]isoindol-5-ol], for which the “time to reach steady-state concentrations” value in data set [1] lay in the range of 30 to 55 h. The “Tmax in the fed state compared to the fasted state” value in data set [2] is given as “delayed, compared to the fasted state, by one hour or more”. Moreover, the “dose dependence of pharmacokinetics” value in data set [3] (doses between 1 mg/day and 4 mg/day, immediate-release formulations) is on record as “linear (independent of the dose)”. Also, the “time to maximum concentrations (Tmax)” value in data set [3] (single or repeated oral administration, U.S. Pat. No. 8,293,779) was 2 to 4 h. Moreover, in data set [4], the carcinogenic effect result is “no carcinogenic effect”, the mutagenic effect result is listed as “no mutagenic effect”, the toxic potential result is listed as “very low” and the “toxicology effect in reproduction” value is reported as “no toxicology effect in reproduction”. For the same compound, the hydrolytic stability entry in data set [5] (moderate temperatures, water / neutral and alkaline aqueous solutions, human plasma) is given as “undergoes hydrolysis at moderate temperatures with minimal amount of water”. Besides, in data set [5] (most soluble at stomach pH, least in the colon), the “solubility as function of pH” value is “decreases with increasing pH”. The “absorption in the colon” value in data set [6] is “not likely to be absorbed in the colon”.
